Assay results as given in patent US20240360157A1, “TYK2 INHIBITORS” (BIOGEN MA INC., priority 2021, published 2024).

What was measured:
Assay type in all cases: biochemical
[1] = target: human JAK1 catalytic kinase (JH1) domain (Homo sapiens (Human), UniProt P23458); assay: ADP-Glo Kinase Assay, recombinant JAK1 catalytic kinase (JH1) domain; conditions: recombinant JH1 domain 4 nM, 35 μM ATP, JAK3-342 peptide, mean, read-out: JAK1 biochem IC50 (nM) Mean
In short: (§1)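 Kinase 4 nM JAK1 / 0.2 nM JAK2 / 0.3 nM JAK3 / 2 nM TYK2; 50 μM peptide; 100 min. Unused ATP depleted, ADP→ATP, luciferase luminescence. 11-pt 3-fold series from 10 or 1 μM; normalized, 4PL fit → IC50.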

[2] = target: human TYK2 catalytic kinase (JH1) domain (Homo sapiens (Human), UniProt P29597); assay: ADP-Glo Kinase Assay, recombinant TYK2 catalytic kinase (JH1) domain; conditions: recombinant JH1 domain 2 nM, 10 μM ATP, JAK3-974 peptide, mean, read-out: TYK2 biochem IC50 (nM) Mean
Sequence of human TYK2 catalytic kinase (JH1) domain (P29597 897-1176): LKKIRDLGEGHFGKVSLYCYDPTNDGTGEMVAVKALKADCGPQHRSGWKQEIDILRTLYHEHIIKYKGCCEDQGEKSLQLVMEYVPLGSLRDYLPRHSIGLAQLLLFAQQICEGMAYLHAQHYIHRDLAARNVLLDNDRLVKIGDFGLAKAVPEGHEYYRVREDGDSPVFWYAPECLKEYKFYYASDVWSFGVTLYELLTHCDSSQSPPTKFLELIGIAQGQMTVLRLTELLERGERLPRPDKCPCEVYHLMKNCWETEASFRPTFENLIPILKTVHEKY
In short: as §1

[3] = target: human JAK3 catalytic kinase (JH1) domain (Homo sapiens (Human), UniProt P52333); assay: ADP-Glo Kinase Assay, recombinant JAK3 catalytic kinase (JH1) domain; conditions: recombinant JH1 domain 0.3 nM, 4 μM ATP, JAK3-974 peptide, mean, read-out: JAK3 biochem IC50 (nM) Mean
Sequence of human JAK3 catalytic kinase (JH1) domain (P52333 822-1111): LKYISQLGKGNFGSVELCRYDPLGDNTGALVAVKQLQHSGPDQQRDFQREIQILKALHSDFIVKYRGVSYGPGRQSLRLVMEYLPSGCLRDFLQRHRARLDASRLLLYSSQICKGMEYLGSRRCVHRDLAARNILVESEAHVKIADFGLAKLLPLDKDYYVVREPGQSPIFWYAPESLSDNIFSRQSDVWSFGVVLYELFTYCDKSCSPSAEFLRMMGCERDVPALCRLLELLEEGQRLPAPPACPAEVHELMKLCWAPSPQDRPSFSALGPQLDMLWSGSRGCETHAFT
In short: as §1

[4] = target: human JAK2 catalytic kinase (JH1) domain (Homo sapiens (Human), UniProt O60674); assay: ADP-Glo Kinase Assay, recombinant JAK2 catalytic kinase (JH1) domain; conditions: recombinant JH1 domain 0.2 nM, 15 μM ATP, JAK3-974 peptide, mean, read-out: JAK2 biochem IC50 (nM) Mean
Sequence of human JAK2 catalytic kinase (JH1) domain (O60674 849-1124): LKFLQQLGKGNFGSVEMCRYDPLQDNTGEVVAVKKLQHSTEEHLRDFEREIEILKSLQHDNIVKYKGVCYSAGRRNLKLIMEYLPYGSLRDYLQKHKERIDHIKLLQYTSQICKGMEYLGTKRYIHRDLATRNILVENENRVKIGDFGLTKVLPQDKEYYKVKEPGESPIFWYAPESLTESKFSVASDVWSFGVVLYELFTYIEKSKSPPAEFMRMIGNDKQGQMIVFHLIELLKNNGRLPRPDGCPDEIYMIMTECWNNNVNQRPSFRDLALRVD
In short: as §1

Sequence of human JAK1 catalytic kinase (JH1) domain (P23458 875-1153): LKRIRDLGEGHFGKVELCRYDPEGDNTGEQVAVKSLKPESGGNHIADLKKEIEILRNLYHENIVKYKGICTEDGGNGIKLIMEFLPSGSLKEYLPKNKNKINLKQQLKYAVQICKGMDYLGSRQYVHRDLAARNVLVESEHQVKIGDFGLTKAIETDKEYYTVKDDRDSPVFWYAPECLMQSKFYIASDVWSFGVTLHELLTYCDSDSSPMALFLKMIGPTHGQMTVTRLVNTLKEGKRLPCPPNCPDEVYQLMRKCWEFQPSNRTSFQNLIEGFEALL

Which IC50 [1] does the source give for `O=C(N1C2CCC1CN(c1ncnn3cc(-c4cnn(C(F)F)c4)cc13)C2)C1(C(F)(F)F)CC1` [Example 45, (3-(6-(1-(difluoromethyl)-1H-pyrazol-4-yl)pyrrolo[2,1-f][1,2,4]triazin-4-yl)-3,8-diazabicyclo[3.2.1]octan-8-yl)(1-(trifluoromethyl)cyclopropyl)methanone] here?
The IC50 was 7300 nM.

What about the IC50 [2] of the same molecule?
The IC50 was 988 nM.

What about the IC50 [3] of the same molecule?
The IC50 was 6010 nM.

What about the IC50 [4] of the same molecule?
Its IC50 is 9490 nM.

Which IC50 [1] does the source give for `O=C(C1CC(F)C1)N1C2CCC1CN(c1ncnn3cc(-c4cnn(C(F)F)c4)cc13)C2` (stereo not shown) [Example 48, (3-(6-(1-(difluoromethyl)-1H-pyrazol-4-yl)pyrrolo[2,1-f][1,2,4]triazin-4-yl)-3,8-diazabicyclo[3.2.1]octan-8-yl)(3-fluorocyclobutyl)methanone] here?
The IC50 was 3780 nM.

What about the IC50 [2] of the same molecule?
The IC50 was 483 nM.

What about the IC50 [3] of the same molecule?
The IC50 was 9430 nM.

What about the IC50 [4] of the same molecule?
Its IC50 is 8770 nM.

Which results are given for `O=C(C1CC1(F)F)N1C2CCC1CN(c1ncnn3cc(-c4cnn(C(F)F)c4)cc13)C2` (stereo not shown) [Example 49, (2,2-difluorocyclopropyl)(3-(6-(1-(difluoromethyl)-1H-pyrazol-4-yl)pyrrolo[2,1-f][1,2,4]triazin-4-yl)-3,8-diazabicyclo[3.2.1]octan-8-yl)methanone]?
IC50 [1]: 475 nM; IC50 [2]: 81 nM; IC50 [3]: 4900 nM; IC50 [4]: 2100 nM

With `O=C(N1C2CCC1CN(c1ncnn3cc(-c4cnn(C(F)F)c4)cc13)C2)C1(F)CC1` [Example 50, (3-(6-(1-(difluoromethyl)-1H-pyrazol-4-yl)pyrrolo[2,1-f][1,2,4]triazin-4-yl)-3,8-diazabicyclo[3.2.1]octan-8-yl)(1-fluorocyclopropyl)methanone] as the molecule, how does the IC50 [1] read?
The IC50 was 1040 nM.

What about the IC50 [2] of the same molecule?
Its IC50 is 295 nM.

What about the IC50 [3] of the same molecule?
The IC50 was 2020 nM.

What about the IC50 [4] of the same molecule?
The IC50 was 6150 nM.

Which IC50 [1] does the source give for `O=C(C1CCC1)N1C2CCC1CN(c1ncnn3cc(-c4cnn(C(F)F)c4)cc13)C2` [Example 51, cyclobutyl(3-(6-(1-(difluoromethyl)-1H-pyrazol-4-yl)pyrrolo[2,1-f][1,2,4]triazin-4-yl)-3,8-diazabicyclo[3.2.1]octan-8-yl)methanone] here?
The IC50 was 2830 nM.

And the IC50 [2]?
Its IC50 is 407 nM.

And the IC50 [3]?
Its IC50 is 7870 nM.

And the IC50 [4]?
Its IC50 is 9130 nM.

Which results are given for `CC1(C(=O)N2C3CCC2CN(c2ncnn4cc(-c5cnn(C(F)F)c5)cc24)C3)CCC1` [Example 52, (3-(6-(1-(difluoromethyl)-1H-pyrazol-4-yl)pyrrolo[2,1-f][1,2,4]triazin-4-yl)-3,8-diazabicyclo[3.2.1]octan-8-yl)(1-methylcyclobutyl)methanone]?
IC50 [1]: 6480 nM; IC50 [2]: 425 nM; IC50 [3]: 9370 nM; IC50 [4]: 9080 nM

`O=C(C1CC(F)(F)C1)N1C2CCC1CN(c1ncnn3cc(-c4cnn(C(F)F)c4)cc13)C2` [Example 55, (3,3-difluorocyclobutyl)(3-(6-(1-(difluoromethyl)-1H-pyrazol-4-yl)pyrrolo[2,1-f][1,2,4]triazin-4-yl)-3,8-diazabicyclo[3.2.1]octan-8-yl)methanone] was tested. Which IC50 [1] did it give?
The IC50 was 2790 nM.

What about the IC50 [2] of the same molecule?
Its IC50 is 290 nM.

And the IC50 [3]?
Its IC50 is 8580 nM.

What about the IC50 [4] of the same molecule?
The IC50 was 7180 nM.

Which results are given for `CC(F)(F)C(=O)N1C2CCC1CN(c1ncnn3cc(-c4cnn(C(F)F)c4)cc13)C2` [Example 56, 1-(3-(6-(1-(difluoromethyl)-1H-pyrazol-4-yl)pyrrolo[2,1-f][1,2,4]triazin-4-yl)-3,8-diazabicyclo[3.2.1]octan-8-yl)-2,2-difluoropropan-1-one]?
IC50 [1]: 1140 nM; IC50 [2]: 233 nM; IC50 [3]: 1360 nM; IC50 [4]: 3340 nM

Which results are given for `CCC(=O)N1C2CCC1CN(c1ncnn3cc(-c4cnn(C)c4)cc13)C2` [Example 57, 1-(3-(6-(1-methyl-1H-pyrazol-4-yl)pyrrolo[2,1-f][1,2,4]triazin-4-yl)-3,8-diazabicyclo[3.2.1]octan-8-yl)propan-1-one]?
IC50 [1]: 5140 nM; IC50 [2]: 941 nM; IC50 [3]: 7850 nM; IC50 [4]: 10000 nM

Which IC50 [1] does the source give for `CC(C)C(=O)N1C2CCC1CN(c1ncnn3cc(-c4cnn(C)c4)cc13)C2` [Example 58, 2-methyl-1-(3-(6-(1-methyl-1H-pyrazol-4-yl)pyrrolo[2,1-f][1,2,4]triazin-4-yl)-3,8-diazabicyclo[3.2.1]octan-8-yl)propan-1-one] here?
The IC50 was 10000 nM.

What about the IC50 [2] of the same molecule?
Its IC50 is 960 nM.

What about the IC50 [3] of the same molecule?
Its IC50 is 10000 nM.

And the IC50 [4]?
Its IC50 is 10000 nM.

For `Cn1cc(-c2cc3c(N4CC5CCC(C4)N5C(=O)CC(F)(F)F)ncnn3c2)cn1` [Example 59, 3,3,3-trifluoro-1-(3-(6-(1-methyl-1H-pyrazol-4-yl)pyrrolo[2,1-f][1,2,4]triazin-4-yl)-3,8-diazabicyclo[3.2.1]octan-8-yl)propan-1-one], which IC50 [1] is on record?
The IC50 was 3500 nM.

And the IC50 [2]?
The IC50 was 652 nM.

What about the IC50 [3] of the same molecule?
Its IC50 is 6940 nM.

And the IC50 [4]?
The IC50 was 9730 nM.

With `Cn1cc(-c2cc3c(N4CC5CCC(C4)N5C(=O)CC#N)ncnn3c2)cn1` [Example 62, 3-(3-(6-(1-methyl-1H-pyrazol-4-yl)pyrrolo[2,1-f][1,2,4]triazin-4-yl)-3,8-diazabicyclo[3.2.1]octan-8-yl)-3-oxopropanenitrile] as the molecule, how does the IC50 [1] read?
Its IC50 is 860 nM.

And the IC50 [2]?
The IC50 was 351 nM.

And the IC50 [3]?
The IC50 was 6830 nM.

And the IC50 [4]?
Its IC50 is 8710 nM.

How did the IC50 [1] turn out when `Cn1cc(-c2cc3c(N4CC5CCC(C4)N5C(=O)C4CC4(F)F)ncnn3c2)cn1` (stereo not shown) [Example 63, (2,2-difluorocyclopropyl)(3-(6-(1-methyl-1H-pyrazol-4-yl)pyrrolo[2,1-f][1,2,4]triazin-4-yl)-3,8-diazabicyclo[3.2.1]octan-8-yl)methanone] was run?
Its IC50 is 787 nM.

And the IC50 [2]?
The IC50 was 117 nM.

What about the IC50 [3] of the same molecule?
The IC50 was 4530 nM.

And the IC50 [4]?
The IC50 was 3050 nM.

`Cn1cc(-c2cc3c(N4CC5CCC(C4)N5C(=O)C4(F)CC4)ncnn3c2)cn1` [Example 64, (1-fluorocyclopropyl)(3-(6-(1-methyl-1H-pyrazol-4-yl)pyrrolo[2,1-f][1,2,4]triazin-4-yl)-3,8-diazabicyclo[3.2.1]octan-8-yl)methanone] was tested. Which IC50 [1] did it give?
The IC50 was 1150 nM.

What about the IC50 [2] of the same molecule?
The IC50 was 289 nM.

And the IC50 [3]?
Its IC50 is 1110 nM.

And the IC50 [4]?
Its IC50 is 5210 nM.

How did the IC50 [1] turn out when `Cn1cc(-c2cc3c(N4CC5CCC(C4)N5C(=O)C4CCC4)ncnn3c2)cn1` [Example 67, Cyclobutyl(3-(6-(1-methyl-1H-pyrazol-4-yl)pyrrolo[2,1-f][1,2,4]triazin-4-yl)-3,8-diazabicyclo[3.2.1]octan-8-yl)methanone] was run?
The IC50 was 3230 nM.

What about the IC50 [2] of the same molecule?
The IC50 was 365 nM.

And the IC50 [3]?
Its IC50 is 4440 nM.

And the IC50 [4]?
Its IC50 is 7460 nM.

With `Cn1cc(-c2cc3c(N4CC5CCC(C4)N5C(=O)C4(C)CCC4)ncnn3c2)cn1` [Example 68, (3-(6-(1-methyl-1H-pyrazol-4-yl)pyrrolo[2,1-f][1,2,4]triazin-4-yl)-3,8-diazabicyclo[3.2.1]octan-8-yl)(1-methylcyclobutyl)methanone] as the molecule, how does the IC50 [1] read?
Its IC50 is 8700 nM.

What about the IC50 [2] of the same molecule?
The IC50 was 696 nM.

And the IC50 [3]?
Its IC50 is 8670 nM.

What about the IC50 [4] of the same molecule?
The IC50 was 9180 nM.

With `Cn1cc(-c2cc3c(N4CC5CCC(C4)N5C(=O)C4CC(F)C4)ncnn3c2)cn1` (stereo not shown) [Example 69, (3-fluorocyclobutyl)(3-(6-(1-methyl-1H-pyrazol-4-yl)pyrrolo[2,1-f][1,2,4]triazin-4-yl)-3,8-diazabicyclo[3.2.1]octan-8-yl)methanone] as the molecule, how does the IC50 [1] read?
Its IC50 is 6660 nM.

What about the IC50 [2] of the same molecule?
Its IC50 is 694 nM.

And the IC50 [3]?
The IC50 was 9720 nM.

And the IC50 [4]?
Its IC50 is 10000 nM.

For `Cn1cc(-c2cc3c(N4CC5CCC(C4)N5C(=O)C4CC(F)(F)C4)ncnn3c2)cn1` [Example 70, (3,3-difluorocyclobutyl)(3-(6-(1-methyl-1H-pyrazol-4-yl)pyrrolo[2,1-f][1,2,4]triazin-4-yl)-3,8-diazabicyclo[3.2.1]octan-8-yl)methanone], which IC50 [1] is on record?
Its IC50 is 2430 nM.

And the IC50 [2]?
Its IC50 is 382 nM.

And the IC50 [3]?
Its IC50 is 5090 nM.

And the IC50 [4]?
The IC50 was 6360 nM.

With `Cn1cc(-c2cc3c(N4CC5CCC(C4)N5C(=O)C4COC4)ncnn3c2)cn1` [Example 71, (3-(6-(1-methyl-1H-pyrazol-4-yl)pyrrolo[2,1-f][1,2,4]triazin-4-yl)-3,8-diazabicyclo[3.2.1]octan-8-yl)(oxetan-3-yl)methanone] as the molecule, how does the IC50 [1] read?
Its IC50 is 5320 nM.

And the IC50 [2]?
The IC50 was 911 nM.

What about the IC50 [3] of the same molecule?
Its IC50 is 10000 nM.

And the IC50 [4]?
Its IC50 is 10000 nM.

Which results are given for `Cn1cc(-c2cc3c(N4CC5CCC(C4)N5C(=O)C(C)(F)F)ncnn3c2)cn1` [Example 72, 2,2-difluoro-1-(3-(6-(1-methyl-1H-pyrazol-4-yl)pyrrolo[2,1-f][1,2,4]triazin-4-yl)-3,8-diazabicyclo[3.2.1]octan-8-yl)propan-1-one]?
IC50 [1]: 759 nM; IC50 [2]: 206 nM; IC50 [3]: 703 nM; IC50 [4]: 2340 nM

What does the source list for `O=C([C@@H]1C[C@H]1F)N1C2CCC1CN(c1ncnn3cc(-c4cnn(C(F)F)c4)cc13)C2` [Example 76, (3-(6-(1-(difluoromethyl)-1H-pyrazol-4-yl)pyrrolo[2,1-f][1,2,4]triazin-4-yl)-3,8-diazabicyclo[3.2.1]octan-8-yl)((1S,2R)-2-fluorocyclopropyl)methanone]?
IC50 [1]: 574 nM; IC50 [2]: 23.1 nM; IC50 [3]: 6270 nM; IC50 [4]: 850 nM

How did the IC50 [1] turn out when `Cn1cc(-c2cc3c(N4CC5CCC(C4)N5C(=O)[C@@H]4C[C@@H]4F)ncnn3c2)cn1` [Example 80, ((1S,2S)-2-fluorocyclopropyl)(3-(6-(1-methyl-1H-pyrazol-4-yl)pyrrolo[2,1-f][1,2,4]triazin-4-yl)-3,8-diazabicyclo[3.2.1]octan-8-yl)methanone] was run?
Its IC50 is 1340 nM.

And the IC50 [2]?
Its IC50 is 483 nM.

And the IC50 [3]?
Its IC50 is 2050 nM.

And the IC50 [4]?
The IC50 was 8020 nM.
